Biological target: BexImpX (Pseudobdellovibrio exovorus, UniProt M4VA25)
Assay: inhibition of riboflavin uptake in E. coli expressing impX, fluorescence
Format: cell-based
Conditions: read-out: % inhibition at 0.9 mM

Row | SMILES | inhibition at 900 µM [%]
1 | NC(=O)c1cccnc1 [nicotinamide] | < 5
2 | Cc1ncc(C[n+]2csc(CCOP(=O)(O)OP(=O)(O)O)c2C)c(N)n1 [thiamine pyrophosphate] | < 5
